Reference: publication PMC6429263, “Evolution and Antibacterial Evaluation of 8-Hydroxy-cycloberberine Derivatives as a Novel Family of Antibacterial Agents Against MRSA” (Molecules, 2019)

Experiments:
MRSA ATCC -BAA-976 = assay: MIC, agar dilution, MRSA ATCC-BAA-976 (clindamycin-resistant); type: cell-based; settings: Staphylococcus aureus; MRSA ATCC-BAA-976, clindamycin-resistant S. aureus; read-out: MIC
MRSA 13-18 = assay: MIC, agar dilution, MRSA 13-18; type: cell-based; settings: Staphylococcus aureus; MRSA 13-18; read-out: MIC
MSSE ATCC 12228 = assay: MIC, agar dilution, MSSE ATCC 12228; type: cell-based, S. epidermidis; settings: Staphylococcus epidermidis, ATCC12228; MSSE ATCC 12228; read-out: MIC
MRSA 16-34 = assay: MIC, agar dilution, MRSA 16-34; type: cell-based; settings: Staphylococcus aureus; MRSA 16-34; read-out: MIC
MSSA 15 = assay: MIC, agar dilution, MSSA 15 (clinical isolate); type: cell-based, S. aureus; settings: Staphylococcus aureus; MSSA 15, isolated from patients in China; read-out: MIC
MSSA ATCC 29213 = assay: MIC, agar dilution, MSSA ATCC 29213; type: cell-based, S. aureus; settings: Staphylococcus aureus; MSSA ATCC 29213; read-out: MIC
VISA ATCC 700699 = assay: MIC, agar dilution, VISA ATCC 700699; type: cell-based; settings: Staphylococcus aureus; VISA ATCC 700699; read-out: MIC
S.s ATCC 15305 = assay: MIC, agar dilution, S.s ATCC 15305; type: cell-based; settings: Staphylococcus saprophyticus, ATCC15305; S. saprophyticus ATCC 15305; read-out: MIC
MSSA 16-1 = assay: MIC, agar dilution, MSSA 16-1 (clinical isolate); type: cell-based, S. aureus; settings: Staphylococcus aureus; MSSA 16-1, isolated from patients in China; read-out: MIC
MRSE 13-3 = assay: MIC, agar dilution, MRSE 13-3; type: cell-based, S. epidermidis; settings: Staphylococcus epidermidis; MRSE 13-3; read-out: MIC
VISA ATCC 700698 = assay: MIC, agar dilution, VISA ATCC 700698; type: cell-based; settings: Staphylococcus aureus; VISA ATCC 700698; read-out: MIC
MRSA ATCC-B AA-1708 = assay: MIC, agar dilution, MRSA ATCC-BAA-1708 (mupA positive); type: cell-based; settings: Staphylococcus aureus; MRSA ATCC-BAA-1708, mupA positive (mupirocin resistance); read-out: MIC
S.h ATCC 35982 = assay: MIC, agar dilution, S.h ATCC 35982; type: cell-based; settings: Staphylococcus hominis, ATCC35982; S. hominis ATCC 35982; read-out: MIC
MSSE 16-5 = assay: MIC, agar dilution, MSSE 16-5 (clinical isolate); type: cell-based, S. epidermidis; settings: Staphylococcus epidermidis; MSSE 16-5, isolated from patients in China; read-out: MIC
[1] = test system: drug-susceptible strains: MSSA, MSSE, S. saprophyticus, S. hominis; assay: MIC across the panel of drug-susceptible Gram-positive strains; type: cell-based; settings: 18 h; drug-susceptible Gram-positive strains of Table 1; read-out: MICs (range over strains)
Text: SAR study for antibacterial activity against drug-susceptible Gram-positive bacteria was initially carried out, taking Lev and compound 1 as reference drugs. […] Bacteria strains used in this study were from the ATCC collection and clinical isolates in Chinese hospitals. The influence of the methylenedioxy ring was explored first, and compounds 6 and 10 were created and tested.

MRSA 13-23 = assay: MIC, agar dilution, MRSA 13-23; type: cell-based; settings: Staphylococcus aureus; MRSA 13-23; read-out: MIC
MRSA ATCC 43300 = assay: MIC, agar dilution, MRSA ATCC 43300; type: cell-based; settings: Staphylococcus aureus; MRSA ATCC 43300; read-out: MIC
MRSE 16-5 = assay: MIC, agar dilution, MRSE 16-5; type: cell-based, S. epidermidis; settings: Staphylococcus epidermidis; MRSE 16-5; read-out: MIC

SMILES | MIC (MRSA ATCC -BAA-976) [µg/mL] | MIC (MRSA 13-18) [µg/mL] | MIC (MSSE ATCC 12228) [µg/mL] | MIC (MRSA 16-34) [µg/mL] | MIC (MSSA 15) [µg/mL] | MIC (MSSA ATCC 29213) [µg/mL] | MIC (VISA ATCC 700699) [µg/mL] | MIC (S.s ATCC 15305) [µg/mL] | MIC (MSSA 16-1) [µg/mL] | MIC (MRSE 13-3) [µg/mL] | MIC (VISA ATCC 700698) [µg/mL] | MIC (MRSA ATCC-B AA-1708) [µg/mL] | MIC (S.h ATCC 35982) [µg/mL] | MIC (MSSE 16-5) [µg/mL] | MIC [1] [µg/mL] | MIC (MRSA 13-23) [µg/mL] | MIC (MRSA ATCC 43300) [µg/mL] | MIC (MRSE 16-5) [µg/mL]
COc1ccc2c(c[n+]3ccc4cc5c(c6c(Cc7ccccc7)cc2c3c46)OCO5)c1O [13a, 1,2-Methylenedioxy-8-hydroxy-9-methoxy-13-benzylcycloberberine chloride] | 16 | 16 | 16 | 8 | 16 | 8 | 8 | 8 | 8 | 8 | 8 | 8 | 8 | 8 | 8 to 16 | 16 | 16 | 16
COc1ccc2c(c[n+]3ccc4cc5c(c6c(Cc7ccc(Cl)cc7)cc2c3c46)OCO5)c1O [13e, 1,2-Methylenedioxy-8-hydroxy-9-methoxy-13-p-chlorobenzylcycloberberine chloride] | 4 | 8 | 8 | 4 | 8 | 8 | 8 | 16 | 4 | 64 | 4 | 8 | 8 | 4 | 2 to 8 | 8 | 8 | 4
COc1ccc2c(c[n+]3ccc4cc5c(c6c(Cc7cccc(C)c7)cc2c3c46)OCO5)c1O [13h, 1,2-Methylenedioxy-8-hydroxy-9-methoxy-13-m-methylbenzylcycloberberine chloride] | 8 | 8 | 4 | 4 | 4 | 4 | 4 | 16 | 4 | 4 | 4 | 4 | 8 | 2 | 2 to 16 | 8 | 8 | 4
COc1ccc2c(c[n+]3ccc4cc5c(c6c(Cc7ccccc7[N+](=O)[O-])cc2c3c46)OCO5)c1O [13p, 1,2-Methylenedioxy-8-hydroxy-9-methoxy-13-o-nitrobenzylcycloberberine chloride] | 8 | 16 | 8 | 4 | 8 | 8 | 4 | 16 | 4 | 32 | 8 | 4 | 8 | 4 | 4 to 16 | 8 | 8 | 8
